Values after ≈ are worked out from the molar mass of the structure shown.

Common to all, as to format: functional
The nature of assay [1]: Cytotoxicity against human NCI60 cells.
Assay [2] deals with Carpophilus. In words: Reduction of feeding rate in adult Carpophilus hemipterus at 100 ppm dietary level relative to control. More on the design: scale not given: the % may be the effect or the level left.
Assay [3] has as its system Carpophilus. Briefly: Reduction of feeding rate in Carpophilus hemipterus larvae at 100 ppm dietary level relative to control. Also on record: scale not given: the % may be the effect or the level left.

For `C=C(C)C1Cc2c(ccc(O)c2OC/C=C(\C)CO)C2=C1C(=O)C(c1ccc(O)cc1)=C(OC)C2=O` (stereo unspecified) [ARENARIN B], in assay [1], the GI50 is 3.8 µg/mL (≈ 7.78 µM). This compound also gave an Activity in assay [2] of 20%.

In assay [2], `C=C(C)C1Cc2c(ccc(OC)c2OC/C=C(\C)CO)C2=C1C(=O)C(c1ccc(O)cc1)=C(OC)C2=O` (stereo unspecified) [ARENARIN C] registered an Activity of 13%.

In assay [1], `COc1c(-c2ccc(O)cc2)c(O)cc2c1oc1cc(O)c(OCC=C(C)C)cc12` [ARENARIN A] yielded a GI50 of 4.8 µg/mL (≈ 11.8 µM). Also, the Activity in assay [3] and in assay [2] was 13% each time.

These data come from ChEMBL document CHEMBL1150896, “Arenarins A-C: new cytotoxic fungal metabolites from the sclerotia of aspergillus arenarius” (1998).
